Common to all, as to type: cell-based
One assay addresses T1, vanilloid receptor (VR1) (Homo sapiens, UniProt Q8NER1).
T1 construct: expressed in transfected cells; host or cells: CHO K1 cells (ECACC), stably transfected
The assay is described as follows: FLIPR Ca2+ influx assay with CHO K1 cells transfected with the human VR1 gene, capsaicin stimulus (Pharmacological method II). The following applies: for Ki / Ki (human) Capsaicin: capsaicin 100 nM stimulus, Ki from IC50 by Cheng-Prusoff. The procedure:
In addition, compounds according to the invention of the general formulae I, Ia, Ib, I′, I″, I′″ may be preferred which, in a FLIPR assay with CHO K1 cells which have been transfected with the human gene VR1, in a concentration of less than 2000 nM, preferably of less than 1000 nM, particularly preferably of less then 300 nM, very particularly preferably of less than 100 nM, still more preferably of less than 75 nM, further preferably of less than 50 nM, most preferably of less than 10 nM, bring about 50% displacement of capsaicin which is present in a concentration of 100 nM.
In this FLIPR assay, the influx of Ca^2+ is quantified with the assistance of a Ca^2+-sensitive dye (type Fluo-4, Molecular Probes Europe BV, Leiden, Netherlands) in a Fluorescent Imaging Plate Reader (FLIPR, Molecular Devices, Sunnyvale, USA) as described below.
The agonistic or antagonistic action of the substances to be investigated on the vanilloid receptor (VR1) may also be determined with the following assay. According to this assay, the influx of Ca^2+ through the channel is quantified with the assistance of a Ca^2+-sensitive dye (type Fluo-4, Molecular Probes Europe BV, Leiden, Netherlands) in a Fluorescent Imaging Plate Reader (FLIPR, Molecular Devices, Sunnyvale, USA).
Chinese hamster ovary cells (CHO K1 cells, European Collection of Cell Cultures (ECACC), Great Britain) are stably transfected with the VR1 gene. For functional investigations, these cells are plated out onto poly-D-lysine-coated, black 96-hole plates with a clear base (BD Biosciences, Heidelberg, Germany) at a density of 25,000 cells/hole. The cells are incubated overnight at 37° C. and 5% CO2 in a culture medium (Ham's Nutrient Mixture F12, 10 vol. % FCS (foetal calf serum), 18 μg/mL L-proline). On the following day, the cells are incubated with Fluo-4 (Fluo-4 2 μM, Pluronic F127 0.01 vol. %, Molecular Probes in HBSS (Hank's buffered saline solution), Gibco Invitrogen GmbH, Karlsruhe, Germany) for 30 minutes at 37° C. The plates are then washed 3 times with HBSS buffer and, after a further 15 minutes' incubation at room temperature, used for Ca^2+ measurement in the FLIPR. Ca^2+-dependent fluorescence is here measured before and after the addition of the substances to be investigated (wavelength λex=488 nm, λem=540 nm). Quantification proceeds by measuring the highest fluorescence intensity (FC, fluorescence counts) over time.
The FLIPR protocol consists of 2 additions of substance. The substances to be tested (10 μM) are firstly pipetted onto the cells and Ca^2+ influx is compared with the control (capsaicin 10 μM) (% activation relative to the Ca^2+ signal after addition of 10 μM of capsaicin). After 5 minutes' incubation, 100 nM of capsaicin are added and the influx of Ca^2+ is likewise determined.
The percentage inhibition in comparison with the maximum achievable inhibition with 10 μM capsaicin is calculated.
On the basis of the percentage displacement by different concentrations of the compounds to be tested of the general formula I, IC50 inhibition concentrations which bring about 50% displacement of capsaicin were calculated. Ki values for the test substances were obtained by conversion using the Cheng-Prusoff equation (Cheng, Prusoff; Biochem. Pharmacol. 22, 3099-3108, 1973).

For assay [1], the target named is vanilloid receptor 1 (VR1/TRPV1 receptor) (Homo sapiens, UniProt Q8NER1). Put plainly: Human VR1/TRPV1 receptor inhibition after pH stimulus. The following applies: for inhibition at 5 µM: compound 5 μM; for inhibition at 10 µM: compound 10 μM.
Sequence of vanilloid receptor 1 (VR1/TRPV1 receptor) (Q8NER1 whole entry): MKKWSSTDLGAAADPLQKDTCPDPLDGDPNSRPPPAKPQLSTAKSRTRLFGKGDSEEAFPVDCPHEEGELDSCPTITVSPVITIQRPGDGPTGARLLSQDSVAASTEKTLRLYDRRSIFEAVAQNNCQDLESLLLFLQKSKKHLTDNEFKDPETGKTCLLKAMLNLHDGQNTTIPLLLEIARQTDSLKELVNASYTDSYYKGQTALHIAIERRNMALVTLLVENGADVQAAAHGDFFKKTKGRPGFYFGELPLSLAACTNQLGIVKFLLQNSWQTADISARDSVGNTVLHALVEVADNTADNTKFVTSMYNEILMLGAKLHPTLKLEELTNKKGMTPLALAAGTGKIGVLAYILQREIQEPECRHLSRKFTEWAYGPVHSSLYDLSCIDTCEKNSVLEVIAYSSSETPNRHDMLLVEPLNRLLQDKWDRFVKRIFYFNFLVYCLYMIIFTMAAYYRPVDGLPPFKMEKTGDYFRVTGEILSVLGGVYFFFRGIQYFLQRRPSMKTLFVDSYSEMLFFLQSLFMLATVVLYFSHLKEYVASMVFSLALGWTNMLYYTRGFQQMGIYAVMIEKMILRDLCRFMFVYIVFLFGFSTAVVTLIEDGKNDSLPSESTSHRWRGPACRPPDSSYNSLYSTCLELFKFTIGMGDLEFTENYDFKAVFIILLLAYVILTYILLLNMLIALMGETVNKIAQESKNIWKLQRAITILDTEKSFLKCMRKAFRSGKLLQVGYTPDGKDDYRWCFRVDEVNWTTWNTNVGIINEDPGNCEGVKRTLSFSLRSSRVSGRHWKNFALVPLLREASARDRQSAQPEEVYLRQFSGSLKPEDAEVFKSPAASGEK
Assay [2] concerns the target T2, vanilloid receptor 1 (VR1/TRPV1) of the rat species (Rattus norvegicus, UniProt O35433).
T2 construct: The spinal column is removed from decapitated rats; from tissue; host or cells: primary cells from rat dorsal root ganglia (DRG)
The assay is described as follows: FLIPR Ca2+ influx assay on rat dorsal root ganglia cells, capsaicin stimulus (Pharmacological method I). The conditions noted are these: capsaicin 100 nM stimulus, Ki from IC50 by Cheng-Prusoff. The procedure:
The agonistic or antagonistic action of the substances to be investigated on the vanilloid receptor 1 (VR1/TRPV1) of the rat species may be determined with the following assay. According to this assay, the influx of Ca^2+ through the receptor channel is quantified with the assistance of a Ca^2+-sensitive dye (type Fluo-4, Molecular Probes Europe BV, Leiden, Netherlands) in a Fluorescent Imaging Plate Reader (FLIPR, Molecular Devices, Sunnyvale, USA).
Complete medium: 50 mL HAMS F12 Nutrient Mixture (Gibco Invitrogen GmbH, Karlsruhe, Germany) with 10 vol. % FCS (foetal calf serum, Gibco Invitrogen GmbH, Karlsruhe, Germany, heat-inactivated);
Cell culture plate: poly-D-lysine-coated, black 96-hole plates with clear base (96 well black/clear plate, BD Biosciences, Heidelberg, Germany) are additionally coated with laminin (Gibco Invitrogen GmbH, Karlsruhe, Germany), by diluting laminin to a concentration of 100 μg/mL with PBS (Ca—Mg-free PBS, Gibco Invitrogen GmbH, Karlsruhe, Germany). Aliquots with a concentration of 100 μg/mL of laminin are taken and stored at −20° C. The aliquots are diluted with PBS in the ratio of 1:10 to 10 μg/mL of laminin and 50 μL of the solution is pipetted into each well of the cell culture plate. The cell culture plates are incubated for at least two hours at 37° C., the supernatant solution is aspirated and the wells are each washed twice with PBS. The coated cell culture plates are stored with supernatant PBS and this is only removed directly prior to introduction of the cells.
The spinal column is removed from decapitated rats and this is placed directly in cold HBSS buffer (Hank's buffered saline solution, Gibco Invitrogen GmbH, Karlsruhe, Germany), i.e. located in an ice bath, combined with 1 vol. % (percent by volume) of an AA solution (antibiotic/antimycotic solution, PAA, Pasching, Austria). The spinal column is severed lengthwise and removed from the spinal canal together with fasciae. The dorsal root ganglia (DRGs) are then removed and in turn stored in cold HBSS buffer combined with 1 vol. % of an AA solution. The DRGs, from which blood residues and spinal nerves have been completely removed, are in each case transferred into 500 μL cold collagenase type 2 (PAA, Pasching, Austria) and incubated for 35 minutes at 37° C. After the addition of 2.5 vol. % trypsin (PAA, Pasching, Austria) incubation at 37° C. is continued for a further 10 minutes. After complete incubation, the enzyme solution is carefully pipetted off and the remaining DRGs are combined in each case with 500 μL of complete medium.
The DRGs are in each case repeatedly suspended, drawn through cannulas no. 1, no. 12 and no. 16 by means of a syringe and transferred into 50 mL Falcon microtubes, these being filled to 15 mL with complete medium. The content of each Falcon microtube is in each case filtered through a 70 μm Falcon filter insert and centrifuged for 10 minutes at 1200 revolutions and room temperature. The resultant pellet is in each case redissolved in 250 μL of complete medium and the cell count is determined.
The number of cells in the suspension is adjusted to 3×10^5 per mL and a 150 μL portion of this suspension is in each case placed in a well of the cell culture plates which have been coated as described above. The plates are left to stand in the incubator for two to three days at 37° C., 5 vol. % CO2 and 95% relative atmospheric humidity.
The cells are then loaded with 2 μM Fluo-4 and 0.01 vol. % Pluronic F127 (Molecular Probes Europe BV, Leiden, Netherlands) in HBSS buffer (Hank's buffered saline solution, Gibco Invitrogen GmbH, Karlsruhe, Germany) for 30 min at 37° C., washed 3×with HBSS buffer and, after a further 15 minutes' incubation at room temperature, used for Ca^2+ measurement in the FLIPR assay. Ca^2+-dependent fluorescence is here measured before and after the addition of substances (λex=488 nm, λem=540 nm). […]

The values that follow come from US8642623B2, “Vanilloid receptor ligand compounds, pharmaceutical compositions containing them, a method of producing them and the use thereof to treat pain and various other conditions” (Gruenenthal GmbH, priority 2007, dated 2014).

Usually Ki stands for the equilibrium dissociation constant of an inhibitor or competing ligand from its target. The term IC50 denotes the concentration that gives 50% inhibition. A high value points to weaker potency. For orientation: inhibition means the drop in the measured response relative to a control, in per cent. Read a low inhibition as a weak effect.

T1 sequence (Q8NER1 whole entry): as above
T2 sequence (O35433 whole entry): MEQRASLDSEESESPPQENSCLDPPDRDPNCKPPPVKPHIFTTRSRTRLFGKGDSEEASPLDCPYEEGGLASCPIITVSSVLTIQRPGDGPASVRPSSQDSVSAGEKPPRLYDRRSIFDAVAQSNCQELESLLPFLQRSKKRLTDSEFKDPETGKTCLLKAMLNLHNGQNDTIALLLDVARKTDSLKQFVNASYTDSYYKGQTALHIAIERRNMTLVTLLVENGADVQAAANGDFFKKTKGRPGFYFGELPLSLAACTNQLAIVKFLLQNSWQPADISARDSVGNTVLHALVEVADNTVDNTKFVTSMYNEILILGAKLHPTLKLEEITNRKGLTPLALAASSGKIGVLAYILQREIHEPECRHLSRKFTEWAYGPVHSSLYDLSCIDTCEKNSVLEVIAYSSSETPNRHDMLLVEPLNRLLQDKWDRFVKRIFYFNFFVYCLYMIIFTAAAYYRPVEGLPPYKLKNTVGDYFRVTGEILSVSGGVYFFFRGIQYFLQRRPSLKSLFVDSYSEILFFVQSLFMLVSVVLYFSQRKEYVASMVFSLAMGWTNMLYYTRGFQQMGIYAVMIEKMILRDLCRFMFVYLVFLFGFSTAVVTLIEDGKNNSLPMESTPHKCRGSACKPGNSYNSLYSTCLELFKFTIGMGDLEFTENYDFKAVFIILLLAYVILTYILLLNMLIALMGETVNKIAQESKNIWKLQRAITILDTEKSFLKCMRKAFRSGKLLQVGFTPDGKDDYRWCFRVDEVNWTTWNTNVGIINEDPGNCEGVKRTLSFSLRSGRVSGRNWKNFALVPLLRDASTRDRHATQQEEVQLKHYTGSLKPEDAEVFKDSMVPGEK

In the case of `CCC(=O)N(c1ccccc1)C1CCN(c2nc(C(F)(F)F)ccc2CNC(=O)C(C)c2ccc(N(C(=O)CC)S(C)(=O)=O)c(F)c2)CC1` (stereo not drawn) [Example 1, N-(2-fluoro-4-(1-oxo-1-((2-(4-(N-phenylpropionamido)piperidin-1-yl)-6-(trifluoromethyl)pyridin-3-yl)methylamino)propan-2-yl)phenyl)-N-(methylsulfonyl)propionamide], the Ki on vanilloid receptor (VR1) was determined as 0.0691 µM; in assay [2], 0.0195 µM. This compound registered an IC50 in assay [1] of 0.525 µM.
`CC(=O)N(c1ccc(C(C)C(=O)NCc2ccc(C(F)(F)F)nc2N2CCC(C)CC2)cc1F)S(C)(=O)=O` (stereo not drawn) [Example 2, 2-(3-fluoro-4-(N-(methylsulfonyl)acetamido)phenyl)-N-((2-(4-methylpiperidin-1-yl)-6-(trifluoromethyl)pyridin-3-yl)methyl)propanamide]: the Ki worked out at 0.0119 µM on vanilloid receptor (VR1) and 0.0022 µM in assay [2]. Further, it took 0.947 µM to reach half-maximal inhibition in assay [1] (IC50).
For the compound `CC1CCN(c2nc(C(F)(F)F)ccc2CNC(=O)C(C)c2ccc(N(C)S(C)(=O)=O)c(F)c2)CC1` (stereo not drawn) [Example 3, 2-(3-fluoro-4-(N-methylmethylsulfonamido)phenyl)-N-((2-(4-methylpiperidin-1-yl)-6-(trifluoromethyl)pyridin-3-yl)methyl)propanamide], affinity at vanilloid receptor (VR1) was put at a Ki of 0.0555 µM. In assay [1], this compound returned an inhibition at 5 µM of 8% and an inhibition at 10 µM of 16%. This compound registered an inhibition constant Ki in assay [2] of 0.02 µM.
In the case of `CC(C(=O)NCc1ccc(C(C)(C)C)cc1)c1ccc(N(C)S(C)(=O)=O)c(F)c1` (stereo not drawn) [Example 4, N-(4-tert.-butylbenzyl)-2-(3-fluoro-4-(N-methylmethylsulfonamido)phenyl)propanamide], the “Ki (human) Capsaicin” value at vanilloid receptor (VR1) is “Ne”. Further, in assay [1], the inhibition at 5 µM stood at 0% and the inhibition at 10 µM stood at 22%. For the same compound, affinity in assay [2] was put at a Ki of 0.0504 µM.
Taken in the same sequence, the figures for `CCN(c1ccc([C@H](C)C(=O)NCc2ccc(C(C)(C)C)cc2)cc1F)S(C)(=O)=O` [Example 6, (S)—N-(4-tert.-butylbenzyl)-2-(4-(N-ethylmethylsulfonamido)-3-fluorophenyl)propanamide] were “Ne”, 0%, 21% and 0.0668 µM.
Take `CC(C(=O)NCc1ccc(C(F)(F)F)nc1SC1CCCCC1)c1ccc(N(C)S(C)(=O)=O)c(F)c1` (stereo not drawn) [Example 7, N-((2-(cyclohexylthio)-6-(trifluoromethyl)pyridin-3-yl)methyl)-2-(3-fluoro-4-(N-methylmethylsulfonamido)phenyl)propanamide]: the affinity on vanilloid receptor (VR1) corresponds to a Ki of 0.0481 µM. In assay [1], the inhibition at 5 µM was 0% and at 10 µM the inhibition was 20%. The same compound showed a Ki in assay [2] of 0.0308 µM.
`CCN(c1ccc(C(C)C(=O)NCc2ccc(C(F)(F)F)nc2N2CCC(C)CC2)cc1F)S(C)(=O)=O` (stereo not drawn) [Example 9, 2-(4-(N-ethylmethylsulfonamido)-3-fluorophenyl)-N-((2-(4-methylpiperidin-1-yl)-6-(trifluoromethyl)pyridin-3-yl)methyl)propanamide] yielded a Ki at vanilloid receptor (VR1) of 0.0227 µM. In assay [1], this compound registered an inhibition at 5 µM of 11% and an inhibition at 10 µM of 46%. In assay [2], this compound had a Ki of 0.0638 µM.
Take `CC1CCN(c2nc(C(C)(C)C)ccc2CNC(=O)C(C)c2ccc(N(C)S(C)(=O)=O)c(F)c2)CC1` (stereo not drawn) [Example 10, N-((6-tert.-butyl-2-(4-methylpiperidin-1-yl)pyridin-3-yl)methyl)-2-(3-fluoro-4-(N-methylmethylsulfonamido)phenyl)propanamide]: affinity at vanilloid receptor (VR1) was put at a Ki of 0.0277 µM. In assay [1], this compound registered an inhibition at 5 µM of 0% and an inhibition at 10 µM of 11%. The affinity in assay [2], expressed as Ki, was 0.0028 µM.
Take `CC(C(=O)NCc1ccc(C(C)(C)C)nc1SC1CCCCC1)c1ccc(N(C)S(C)(=O)=O)c(F)c1` (stereo not drawn) [Example 11, N-((6-tert.-butyl-2-(cyclohexylthio)pyridin-3-yl)methyl)-2-(3-fluoro-4-(N-methylmethylsulfonamido)phenyl)propanamide]: the inhibition at 0.1 µM on vanilloid receptor (VR1) (CHO-K1, capsaicin stimulus, compound 0.1 μM) is 0%. Further, the inhibition at 1 µM at vanilloid receptor (VR1) (CHO-K1, capsaicin stimulus, compound 1 μM) was found to be 33%. The compound further registered an inhibition at 5 µM against vanilloid receptor (VR1) (CHO-K1, capsaicin stimulus, compound 5 μM) of 56%. Besides, the “IC50 (human) after pH stimulus” value in assay [1] is “ne”. Further, in assay [2], affinity was put at a Ki of 0.0168 µM.
`CC1CCN(c2cc(C(F)(F)F)ccc2CNC(=O)C(C)c2ccc(N(C)S(C)(=O)=O)c(F)c2)CC1` (stereo not drawn) [Example 12, 2-(3-fluoro-4-(N-methylmethylsulfonamido)phenyl)-N-(2-(4-methylpiperidin-1-yl)-4-(trifluoromethyl)benzyl)propanamide] came in with a Ki at vanilloid receptor (VR1) of 0.0078 µM. In assay [1], the inhibition at 5 µM amounted to 0% and testing at 10 µM gave an inhibition of 43%. For the same compound, in assay [2], the Ki came to 0.005 µM.
